Test results as given in ChEMBL document CHEMBL1153514, “Fundamental relationships between structure, reactivity, and biological activity for the duocarmycins and CC-1065” (J Med Chem, 2009).
pIC50: −log10 of the molar value.

Key:
[1] = Stability assessed as half life at pH 3; format: physicochemical; settings: buffer
[2] = Stability assessed as half life at pH 7; format: physicochemical; settings: buffer
L1210 = assay: Cytotoxicity against mouse L1210 cells; format: functional, cell-based
[3] = Stability assessed as half life at pH 2; format: physicochemical; settings: buffer

Row | Structure (SMILES) | half-life [1] [h] | pIC50 (L1210) | also measured
1 | CNC(=O)N1C[C@H]2C[C@@]23C1=CC(=O)c1ccccc13 | 0.6 |  | 
2 | COC(=O)N1C[C@H]2C[C@@]23C1=CC(=O)c1ccccc13 | 0.95 |  | 
3 | CCS(=O)(=O)N1C[C@H]2C[C@@]23C1=CC(=O)c1ccccc13 | 6.38 |  | 
4 | CC(C)(C)OC(=O)N1CC[C@H]2C[C@@]23C1=CC(=O)c1ccccc13 |  |  | half-life [2]: 544 h
5 | COC(=O)c1cc2c([nH]1)C(=O)C=C1N(C(=O)OC(C)(C)C)C[C@H]3C[C@]123 |  |  | Stability [2]: Stable
6 | COc1cc2cc(C(=O)N3C[C@H]4C[C@@]45C3=CC(=O)c3ccccc35)[nH]c2c(OC)c1OC | 133 | 10.70 | 
7 | CC(C)(C)OC(=O)N1C[C@H]2C[C@@]23C1=CC(=O)c1ccc(C#N)cc13 | 3.55 |  | 
8 | CCC(=O)N1C[C@H]2C[C@@]23C1=CC(=O)c1ccccc13 | 1.6 |  | 
9 | O=C1C=C2NC[C@H]3C[C@@]23c2ccccc21 | 4200 |  | Stability [2]: Stable
10 | COC(=O)c1cc2c([nH]1)[C@@]13C[C@@H]1CN(C(=O)OC(C)(C)C)C3=CC2=O |  | 7.48 | 
11 | COc1cc2cc(CN3C[C@H]4C[C@@]45C3=CC(=O)c3ccccc35)[nH]c2c(OC)c1OC |  | 5.85 | t1/2 [1]: 1291.7 days
12 | COC(=O)c1cccc2c1C(=O)C=C1N(C(=O)OC(C)(C)C)C[C@H]3C[C@]123 | 3.93 | 7.15 | 
13 | O=C1C=C2N(c3ccccc3)C[C@H]3C[C@@]23c2ccccc21 |  | 5.96 | half-life [3]: 171 h
14 | COc1ccc(N2C[C@H]3C[C@@]34C2=CC(=O)c2ccccc24)cc1 |  | 5.49 | half-life [3]: 198 h
15 | Cc1csc2c1[C@@]13C[C@@H]1CN(C(=O)OC(C)(C)C)C3=CC2=O | 206 | 7.52 | 
16 | COC(=O)c1cc2c([nH]1)[C@@]13C[C@@H]1CN(C(=O)c1cc4cc(OC)c(OC)c(OC)c4[nH]1)C3=CC2=O |  | 10.30 | 
17 | COC(=O)c1ccc(N2C[C@H]3C[C@@]34C2=CC(=O)c2ccccc24)cc1 |  | 6.48 | half-life [3]: 138 h
18 | COC(=O)C1=NC2=C(OCc3ccccc3)C=C3N(C(=O)c4cc5cc(OC)c(OC)c(OC)c5[nH]4)C[C@H]4C[C@@]34C2=C1 | 0.417 | 8.30 | half-life [2]: 0.717 h
19 | Cc1cc2c(s1)[C@@]13C[C@@H]1CN(C(=O)OC(C)(C)C)C3=CC2=O | 209 | 7.60 | 
20 | O=C1C=C2CC[C@H]3C[C@@]23c2ccccc21 | 1.3 |  | half-life [2]: 4 h
21 | CC(C)(C)OC(=O)N1CCC[C@H]2C[C@@]23C1=CC(=O)c1ccccc13 | 0.03 | 5.30 | half-life [2]: 2.1 h
22 | CC(C)(C)OC(=O)N1C[C@H]2C[C@@]23C1=CC(=O)c1ccccc13 |  |  | Stability [2]: Stable
23 | COc1ccc2c(c1)[C@@]13C[C@@H]1CN(C(=O)OC(C)(C)C)C3=CC2=O | 1.83 |  | 
24 | COC(=O)c1cc2c([nH]1)C(=O)C=C1N(C(=O)c3cc4cc(OC)c(OC)c(OC)c4[nH]3)C[C@H]3C[C@]123 [DUOCARMYCIN] | 177 |  | Stability [2]: Stable
